Source: patent publication US10519162B2, “6,7-dihydropyrazolo[1,5-α]pyrazin-4(5H)-one compounds and their use as negative allosteric modulators of mGluR2 receptors” (Janssen Pharmaceutica NV, priority 2014, dated 2019)

Columns and labels:
human mGlu2 receptor = target: T1, human mGlu2 receptor (Homo sapiens, UniProt Q14416); experiment: [35S]GTPγS binding assay (mGluR2 negative allosteric modulation, glutamate ~EC80 60 μM); assay type: biochemical; conditions: for Emax: maximal % inhibition relative to the control glutamate response (EC80 glutamate), read-out: GTPγS-hmGluR2 anGT Emax; for IC50: membranes from CHO cells transfected with human mGlu2 receptor, glutamate ~EC80 (60 μM), pIC50 = −log IC50 (M), read-out: GTPγS-hmGluR2 anGT pIC50 (converted)
T1 construct: expressed in transfected cells; host or cells: CHO cells
Procedure: 1) [^35S]GTPγS Binding Assay
[^35S]GTPγS Binding Assay
Total reaction volume was 200 μl. […] Membrane-bound radioactivity was counted in a Topcount.

Male Wiga Wistar rats = experiment: Reversal of LY-404039-induced decrease of palpebral opening in apomorphine-challenged rats (APO LY-404039); assay type: in vivo, rat; conditions: Rattus norvegicus, apomorphine challenged rats
Procedure: B) In Vivo Pharmacology 1) Reversal of LY-404039-Induced Decrease of Palpebral Opening in Apomorphine-Challenged Rats.
Male Wiga Wistar rats (Crl:WI; Charles River Germany; 220±40 g) were housed under standard laboratory conditions (21±2° C.; 50-65% relative humidity; light-dark cycle set at 12 h; lights on at 6.00 h) and fasted overnight prior to the start of the experiments (tap water remained available ad libitum). During the test period, they were housed in individual cages. Palpebral opening was scored every 5 min over the first hour after injection of apomorphine (1.0 mg/kg, i.v.) in animals either pretreated or not pretreated with LY-404039 (2.5 mg/kg, s.c.) at 1 h prior to the apomorphine injection. The animals were also pretreated with test compound or solvent at a predefined interval before apomorphine challenge. The score system was: (5) exophthalmos, (4) wide open, (3) open for three-quarters, (2) half open, (1) open for one-quarter, (0) closed. The scores for palpebral opening were cumulated over the 60-min observation period.
In animals receiving apomorphine alone the median palpebral opening is 43 whereas in animals receiving apomorphine and LY-404039, the median palpebral opening is 17.

rats = experiment: Reversal of the effect of the mGluR2 PAM JNJ-42153605-induced inhibition of scopolamine-induced hyperlocomotion (SCOP JNJ-42153605); assay type: in vivo, rat; conditions: Rattus norvegicus, rats, reversal criterion total distance >1500 cm
Outline: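 Rats got test compound or vehicle 60 min pre-recording, JNJ-42153605 (20 mg/kg, i.v.) 30 min pre-recording, then scopolamine (0.16 mg/kg, i.v.) just before. Total distance over the first 30 min was video-tracked; all-or-none reversal criterion: total distance >1500 cm.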

Wiga rats = experiment: Induction of mydriasis (MYD); assay type: in vivo; conditions: Rattus norvegicus, pupil diameter >25 units, 1-3 h post-administration
Procedure: 3) Induction of Mydriasis
The pupil diameter of Wiga rats was measured with a microscopic micrometer (1 unit=1/24 mm). Criteria for drug-induced effects: pupil diameter >25 units for mydriasis (in controls: 1.9%) 1, 2 or 3 h post-administration of the test compound (wherein the maximum pupil diameter over the full 3 h period is reported).

Male Long Evans rats = experiment: V-maze test (PCP-disrupted visual-spatial working memory); assay type: in vivo, rat; conditions: Co. No. 8 at doses 0.16 and 0.31 mg/kg p.o. 4 h before test, PCP 0.75 mg/kg s.c. 30 min prior to test
Description: Data are reported as Mean±SEM, n=12/group; ANOVA with LSD-post hoc, p vs. familiar arm: *** p<0.001, *<0.05. In FIG. 1, veh means vehicle and CPD means Co. No. 8
The V-maze-test is a two-trial short term visual-spatial working memory task based on spontaneous exploration of a new and a familiar arm in a 2-arm maze (Embrechts et al. (2013) “Longitudinal characterization of the TauPS2APP mouse model of Alzheimer's disease in a two trial discrimination task of visuo-spatial recognition memory”, 45th European Brain and Behaviour Society Meeting 6-9 Sep. 2013, Munich, Abstract P202).
Male Long Evans rats (Janvier, France, body weight 280 to 295 g) were group housed in enriched individually ventilated cages and habituated to environmental conditions for 5 days. After acclimatization, animals were single housed for 4 days until testing. During this period animals were handled for 2 min per day and received sham dosing once a day for 3 days prior to the test. […] The animal's exploration of each arm was automatically quantified using Ethovision XT 7.0 (Noldus, The Netherlands). […] The time spent in the familiar and new arm respectively during the choice session was recorded for 5 min.
Co. No. 8 was evaluated in rats in a series of dose-response studies evaluating doses from 0.16 to 0.63 mg/kg.

T1 sequence (Q14416 19-872): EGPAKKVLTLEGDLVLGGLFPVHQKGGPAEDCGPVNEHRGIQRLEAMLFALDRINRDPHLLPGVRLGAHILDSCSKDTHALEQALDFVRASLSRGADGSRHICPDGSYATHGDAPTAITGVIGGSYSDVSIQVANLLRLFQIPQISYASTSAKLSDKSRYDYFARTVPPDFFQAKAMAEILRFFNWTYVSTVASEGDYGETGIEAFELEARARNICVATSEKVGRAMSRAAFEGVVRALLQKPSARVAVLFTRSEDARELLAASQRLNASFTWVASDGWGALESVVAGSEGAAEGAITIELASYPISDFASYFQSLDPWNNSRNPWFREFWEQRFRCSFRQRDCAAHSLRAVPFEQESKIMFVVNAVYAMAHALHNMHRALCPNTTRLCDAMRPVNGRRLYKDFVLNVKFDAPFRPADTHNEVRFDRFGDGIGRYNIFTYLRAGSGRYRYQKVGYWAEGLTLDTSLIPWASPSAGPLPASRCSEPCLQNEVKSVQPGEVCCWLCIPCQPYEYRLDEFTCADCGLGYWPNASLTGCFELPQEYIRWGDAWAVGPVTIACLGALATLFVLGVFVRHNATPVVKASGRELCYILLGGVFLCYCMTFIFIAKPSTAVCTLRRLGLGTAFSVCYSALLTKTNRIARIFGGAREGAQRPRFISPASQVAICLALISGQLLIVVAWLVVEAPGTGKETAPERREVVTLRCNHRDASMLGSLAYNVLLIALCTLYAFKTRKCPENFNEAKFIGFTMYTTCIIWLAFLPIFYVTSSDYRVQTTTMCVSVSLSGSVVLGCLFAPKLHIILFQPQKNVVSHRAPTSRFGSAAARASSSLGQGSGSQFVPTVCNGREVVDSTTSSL

In the case of `Cc1cc(N2C[C@H](C)n3ncc(NC(=O)c4cccnc4)c3C2=O)ccc1C(F)(F)F` [Co. No. 145], the Emax (human mGlu2 receptor) was 105%, the IC50 (human mGlu2 receptor) was 4.57e-09 M and the ED50 (Male Wiga Wistar rats; PO (oral route)) was 0.5 mg/kg. The ED50 (rats; PO (oral route)) was over 0.63 mg/kg, the ED50 (Wiga rats; PO (oral route)) was 6.6 mg/kg and the melting point was 120.33 °C.

Work on `Cc1cc(C(=O)Nc2cnn3c2C(=O)N(c2ccc(C(F)(F)F)c(Cl)c2)C[C@@H]3C)ccn1` [Co. No. 12] yielded an Emax (human mGlu2 receptor) of 107%, an IC50 (human mGlu2 receptor) of 2.14e-09 M and an ED50 (Male Wiga Wistar rats; PO (oral route)) of 0.42 mg/kg. The ED50 (rats; PO (oral route)) was 0.32 mg/kg, the ED50 (Wiga rats; PO (oral route)) was 21.5 mg/kg and the melting point was 159.96 °C.

With `C[C@H]1CN(c2ccc(C(F)(F)F)cc2)C(=O)c2c(NC(=O)c3ccc(N)nc3)cnn21` [Co. No. 8, 6-Amino-N-[(7S)-7-methyl-4-oxo-5-[4-(trifluoromethyl)phenyl]-6,7-dihydropyrazolo[1,5-a]pyrazin-3-yl]pyridine-3-carboxamide] the Emax (human mGlu2 receptor) was 110%, the IC50 (human mGlu2 receptor) was 2.14e-09 M and the “exploration of the new vs. the familiar arm in the V-maze (reversal of PCP deficit)” value (Male Long Evans rats) was “significantly reversed the PCP deficit”. For the same molecule, the ED50 (Male Wiga Wistar rats; PO (oral route)) was 0.19 mg/kg, the ED50 (Male Wiga Wistar rats; SC (subcutaneous route)) was 0.34 mg/kg and the ED50 (rats; PO (oral route)) was 0.13 mg/kg. The ED50 (rats; SC (subcutaneous route)) was 0.13 mg/kg, the ED50 (Wiga rats; PO (oral route)) was 8.7 mg/kg and the ED50 (Wiga rats; SC (subcutaneous route)) was 7.1 mg/kg. For the same molecule, the melting point was 240.39 °C.

`Cc1cncc(C(=O)Nc2cnn3c2C(=O)N(c2ccc(C(F)(F)F)c(Cl)c2)C[C@@H]3C)c1` [Co. No. 101, N-[(7S)-5-[3-chloro-4-(trifluoromethyl)phenyl]-7-methyl-4-oxo-6,7-dihydropyrazolo[1,5-a]pyrazin-3-yl]-5-methyl-pyridine-3-carboxamide] gave an Emax (human mGlu2 receptor) of 107%, an IC50 (human mGlu2 receptor) of 1.12e-09 M and an ED50 (Male Wiga Wistar rats; PO (oral route)) of 0.18 mg/kg. It also gave an ED50 (rats; PO (oral route)) of over 0.63 mg/kg, an ED50 (Wiga rats; PO (oral route)) of 5 mg/kg and a melting point of 160.38 °C.

With `C[C@H]1CN(c2ccc(C(F)(F)F)cc2)C(=O)c2c(NC(=O)c3cccnc3)cnn21` [Co. No. 28] the Emax (human mGlu2 receptor) was 107%, the IC50 (human mGlu2 receptor) was 7.59e-09 M and the ED50 (Male Wiga Wistar rats; PO (oral route)) was 0.78 mg/kg. The ED50 (rats; PO (oral route)) was 0.39 mg/kg, the ED50 (Wiga rats; PO (oral route)) was 25 mg/kg and the melting point was 152.59 °C.

Molecule `C[C@H]1CN(c2ccc(C(F)(F)F)c(Cl)c2)C(=O)c2c(NC(=O)c3ccc(N)nc3)cnn21` [Co. No. 1, 6-Amino-N-[(7S)-5-[3-chloro-4-(trifluoromethyl)phenyl]-7-methyl-4-oxo-6,7-dihydropyrazolo[1,5-a]pyrazin-3-yl]pyridine-3-carboxamide] has an Emax (human mGlu2 receptor) of 109%, an IC50 (human mGlu2 receptor) of 1.15e-09 M and an ED50 (Male Wiga Wistar rats; PO (oral route)) of 0.39 mg/kg. The ED50 (rats; PO (oral route)) was 0.26 mg/kg, the ED50 (Wiga rats; PO (oral route)) was 14.1 mg/kg and the melting point was 219.62 °C.
